The results in this text go back to patent publication US20230357162A1, “COMPOUNDS, COMPOSITIONS AND METHODS” (Denali Therapeutics Inc., priority 2020, published 2023).

Where only a bound is given, the exact number is not on record here.

The subject of this test is IL-1β secretion, THP-1 cells. Briefly: IL-1β secretion assay in PMA-differentiated THP-1 cells stimulated with LPS and nigericin (ELISA readout). The format is cell-based. To be noted: Homo sapiens, THP-1, inhibition of IL-1β secretion, 25 ng/mL LPS then nigericin. The protocol: Compounds as provided herein were tested in the following assay. Cell culture medium employed contained RPMI 1640 medium (89%), FBS (10%), Pen/Strep (1%), and 2-mercaptoethanol (0.05 mM). Freezing medium was made up of 90% FBS and 10% DMSO. THP-1 cells were removed from the liquid nitrogen and placed into a 37° C. water bath to thaw, until signs of ice dissipated. The cells were then added to 9 mL of warm cell culture medium and centrifuged for 5 minutes at 1000 rpm. The supernatant was discarded, and the cells were resuspended in new cell culture medium. THP-1 cells were then split and cultured in the cell culture medium, being passaged every 2-3 days with the cell density will be maintained between 5×10^5 and 1.5×10^6 viable cells/mL.
PMA was dissolved in DMSO to make a stock solution at 5 mg/ml and stored in 10 µl aliquots at -20° C. for single use. PMA is added to normal growth medium. LPS was diluted with 1 mL of water solution to provide a 1 mg/mL stock solution and stored in 15 µl aliquots at -20° C. for single use. Nigericin is diluted in ice cold 100% ethanol to 5 mg/ml (6.7 mM) and stored in 75 µL aliquots at -20° C. for single use. Serum-free media contains RPMI 1640 medium (99%), Pen/Strep (1%), and 2-mercaptoethanol (0.05 mM). The two control conditions used to qualify and normalize test compound dose-response curves were as follows: High Control = 25 ng/mL LPS, 5 µM Nigericin, 0.5% DMSO, Low Control = 25 ng/mL, LPS, 0.5% DMSO.
THP-1 cells were diluted to provide a suspension at a concentration of 1.0×10^6 cells/mL with the total volume of suspension required to enable the desired number of assay plates. The growth media was supplemented with PMA (5 ng/mL final concentration) and the cells were incubated at 37° C. under a humidified atmosphere of 5% CO2 for 40 h.
All media was carefully aspirated from each culture flask. The cells were washed carefully with 1x DPBS. The cells were then briefly digested with trypsin LE for 5 minutes at 23° C. and immediately resuspended in cell growth media. After resuspension, the cells were centrifuged at 1000 rpm for 3 minutes and the supernatant was discarded. The cells were resuspended in DPBS and once again centrifuged at 1000 rpm for 5 minutes. The supernatant was discarded and the cell pellet was resuspended in serum-free media supplemented with LPS (25 ng/mL final concentration) to enable the distribution of 30 K THP-1 cells within 45 µL of media into each well of 384-well PDL-coated plates. The 384-well plates were then incubated at 37° C. under a humidified atmosphere of 5% CO2 for 2 h. Following this period, test compounds were dispensed by Tecan across the desired concentration range with all wells normalized to a final 0.5 % DMSO concentration. The plates were then then incubated at 37° C. under a humidified atmosphere of 5% CO2 for 1 h. Following this period, 5 µL of the […] nigericin stock solution was added to each of the appropriate wells and plates were centrifuged at 1000 rpm for 30 seconds. The plates were the immediately reintroduced to the incubator at 37° C. under a humidified atmosphere of 5% CO2 for 2 h. After this time, 35 µL/well of supernatant was collected and transferred into v-bottom plate and centrifuged at 1000 rpm for 1 minute. These supernatant aliquots were analyzed using an IL-Iβ detection kit as described below. If needed, the test samples could be snap frozen and stored at -80° C. until analyzed.
To prepare each ELISA plate, capture antibody (mAb Mt175) was diluted with PBS to a final concentration of 2 µg/mL and then 20 µL of this solution was added to each well of the ELISA plate. Each plate was allowed to incubate overnight at 4° C. The next day, the capture antibody solution was removed and discarded. Each ELISA plate was washed 4 times with PBST followed by the addition of 25 µL/well of blocking buffer (Licor-927-40010) supplemented with 0.1% Tween 20. Each ELISA plate was then allowed to incubate for 1 hour at 23° C. […]
(An ELISA detects its analyte on a solid surface through an enzyme-linked reagent.)

The IC50 is the concentration needed to halve the response being measured. Regarding `CC(C)c1nn(CC(=O)Nc2cccnn2)c(=O)c2ccc(Br)cc12` [Example 70, 2-(6-bromo-1-oxo-4-propan-2-ylphthalazin-2-yl)-N-pyridazin-3-ylacetamide], the IC50 (class column of Table 3) is < 10 µM and the IC50 (numeric column of Table 3) is 0.952 µM.
For `CC(F)COc1nn(CC(=O)Nc2ncc(F)cn2)c(=O)c2ccc(Br)cc12` (stereo not drawn) [Example 162], the IC50 is < 10 µM (class column of Table 3) and 0.455 µM (numeric column of Table 3).
Consider `CCN1CCCC1CNC(=O)Cn1nc(C(C)C)c2cc(Br)ccc2c1=O` (stereo not drawn) [Example 109, 2-(6-bromo-1-oxo-4-propan-2-ylphthalazin-2-yl)-N-[(1-ethylpyrrolidin-2-yl)methyl]acetamide], for which the half-inhibitory concentration (IC50) is < 10 µM (class column of Table 3) and 5.81 µM (numeric column of Table 3).
In the case of `CCN1CCC[C@@H](NC(=O)Cn2nc(C(C)C)c3cc(Br)ccc3c2=O)C1` [Example 3, (R)-2-(6-Bromo-4-isopropyl-1-oxophthalazin-2(1H)-yl)-N-(1-ethylpiperidin-3-yl)acetamide], the IC50 (class column of Table 3) is < 10 µM and it took 0.159 µM to reach half-maximal inhibition (numeric column of Table 3) (IC50).
As to `CCN1CCC[C@@H](NC(=O)Cn2nc(C(F)(F)F)c3ccc(Br)cc3c2=O)C1` [Example 90, 2-[7-bromo-1-oxo-4-(trifluoromethyl)phthalazin-2-yl]-N-[(3R)-1-ethylpiperidin-3-yl]acetamide], the 50% inhibitory concentration (IC50) by setting is: (class column of Table 3) < 10 µM; (numeric column of Table 3) 6.74 µM.
As for `Cc1nn(CC(=O)Nc2ncc(F)cn2)c(=O)c2ccc(Br)c(F)c12` [Example 145], the IC50 (class column of Table 3) was < 10 µM and the IC50 (numeric column of Table 3) is 0.174 µM.
Consider `N#Cc1cnc(NC(=O)Cn2nc(C(F)F)c3c(F)c(Br)ccc3c2=O)nc1` [Example 133], for which the IC50 (class column of Table 3) is < 10 µM and the midpoint of inhibition (numeric column of Table 3), the IC50, lay at 0.109 µM.
Taken in the same sequence, the figures for `CC(C)c1nn(CC(=O)Nc2ccncc2F)c(=O)c2ccc(Br)cc12` [Example 8, 2-(6-Bromo-4-isopropyl-1-oxophthalazin-2(1H)-yl)-N-(3-fluoropyridin-4-yl)acetamide] were < 10 µM and 0.235 µM.
Taken in the same sequence, the figures for `CC(C)c1nn(CC(=O)NC2(C)CCOCC2)c(=O)c2ccc(Br)cc12` [Example 44, 2-(6-bromo-1-oxo-4-propan-2-ylphthalazin-2-yl)-N-(4-methyloxan-4-yl)acetamide] were 10 to 15 µM and 12.3 µM.
The matching figures for `O=C(Cn1nc(CF)c2ccc(Br)cc2c1=O)Nc1ncc(F)cn1` [Example 143, 2-[7-bromo-4-(fluoromethyl)-1-oxophthalazin-2-yl]-N-(5-fluoropyrimidin-2-yl)acetamide]: < 10 µM and 2.47 µM.
For `CC(F)c1nn(CC(=O)Nc2ncccn2)c(=O)c2ccc(Br)cc12` (stereo not drawn) [Example 80, 2-[6-bromo-4-(1-fluoroethyl)-1-oxo-phthalazin-2-yl]-N-pyrimidin-2-yl-acetamide], the IC50 (class column of Table 3) is < 10 µM and half-maximal inhibition (numeric column of Table 3) (IC50) was put at 0.197 µM.
The matching figures for `O=C(Cn1nc(OCC(F)(F)F)c2cc(Br)ccc2c1=O)Nc1ncc(F)cn1` [Example 138, 2-[6-bromo-1-oxo-4-(2,2,2-trifluoroethoxy)phthalazin-2-yl]-N-(5-fluoropyrimidin-2-yl)acetamide]: 10 to 15 µM and 11.1 µM.
For `CC(C)(C)OC(=O)N1CCC[C@@H](NC(=O)Cn2nc(OC3CC3)c3cc(Br)ccc3c2=O)C1` [Example 175, tert-butyl (3R)-3-[[2-(6-bromo-4-cyclopropyloxy-1-oxophthalazin-2-yl)acetyl]amino]piperidine-1-carboxylate], the IC50 is, setting by setting: (class column of Table 3) < 10 µM; (numeric column of Table 3) 8.65 µM.
`O=C(Cn1nc(C(F)F)c2ccc(Br)cc2c1=O)Nc1ncc(F)cn1` [Example 104, 2-[7-bromo-4-(difluoromethyl)-1-oxophthalazin-2-yl]-N-(5-fluoropyrimidin-2-yl)acetamide]: the IC50 (class column of Table 3) is < 10 µM and the IC50 (numeric column of Table 3) worked out at 6.99 µM.
The matching figures for `CC(C)c1nn(CC(=O)Nc2ncncc2F)c(=O)c2ccc(Br)c(F)c12` [Example 9, 2-(6-Bromo-5-fluoro-4-isopropyl-1-oxophthalazin-2(1H)-yl)-N-(5-fluoropyrimidin-4-yl)acetamide]: < 10 µM and 0.144 µM.
